Data reported in article doi:10.1101/2024.09.10.612317v1 (bioRxiv, 2024).

Key:
[1] = system: BMDCs overlaid with BB7 hybridoma cells; assay: Antigen presentation assay with Ag85B and BB7 hybridoma; type: cell-based, mouse; details: Ag85B ∼0.5 μM, BMDCs to BB7 cells 1:7
[2] = system: BMDCs; assay: Cytokine, chemokine and growth factor production by BMDCs; type: cell-based, mouse; details: coacervates 10 μM, 24 h, multiplex assays; LPS positive control
[3] = Turbidity and optical microscopy of LLPS; type: physicochemical; details: 0.1 M phosphate buffer pH 7.4, 1M NaCl

| Substance | antigen presentation of Ag85B (IL-2) [1] | induction of cytokines, chemokines and growth factors in BMDCs [2] | coacervates at 1M NaCl (optical micrographs) [3] |
| --- | --- | --- | --- |
| (GHGVY)4 [GV 20] | enhanced antigen presentation of Ag85B | immunologically inert | presence of coacervates |
| (GHGLY)4 [GL 20] | enhanced antigen presentation of Ag85B | immunologically inert | presence of coacervates |
